The compounds below were run against T1, VEGFR-2 (Homo sapiens, UniProt P35968) (assay: Protein kinase activity by ELISA in vitro, VEGFR-2). Details: concentration of 10^−7 mol/L; read-out: kinase inhibition ratio, VEGFR-2.
T1 construct: purchased Cell Signaling Technology CO
T1 sequence (P35968 20-1356): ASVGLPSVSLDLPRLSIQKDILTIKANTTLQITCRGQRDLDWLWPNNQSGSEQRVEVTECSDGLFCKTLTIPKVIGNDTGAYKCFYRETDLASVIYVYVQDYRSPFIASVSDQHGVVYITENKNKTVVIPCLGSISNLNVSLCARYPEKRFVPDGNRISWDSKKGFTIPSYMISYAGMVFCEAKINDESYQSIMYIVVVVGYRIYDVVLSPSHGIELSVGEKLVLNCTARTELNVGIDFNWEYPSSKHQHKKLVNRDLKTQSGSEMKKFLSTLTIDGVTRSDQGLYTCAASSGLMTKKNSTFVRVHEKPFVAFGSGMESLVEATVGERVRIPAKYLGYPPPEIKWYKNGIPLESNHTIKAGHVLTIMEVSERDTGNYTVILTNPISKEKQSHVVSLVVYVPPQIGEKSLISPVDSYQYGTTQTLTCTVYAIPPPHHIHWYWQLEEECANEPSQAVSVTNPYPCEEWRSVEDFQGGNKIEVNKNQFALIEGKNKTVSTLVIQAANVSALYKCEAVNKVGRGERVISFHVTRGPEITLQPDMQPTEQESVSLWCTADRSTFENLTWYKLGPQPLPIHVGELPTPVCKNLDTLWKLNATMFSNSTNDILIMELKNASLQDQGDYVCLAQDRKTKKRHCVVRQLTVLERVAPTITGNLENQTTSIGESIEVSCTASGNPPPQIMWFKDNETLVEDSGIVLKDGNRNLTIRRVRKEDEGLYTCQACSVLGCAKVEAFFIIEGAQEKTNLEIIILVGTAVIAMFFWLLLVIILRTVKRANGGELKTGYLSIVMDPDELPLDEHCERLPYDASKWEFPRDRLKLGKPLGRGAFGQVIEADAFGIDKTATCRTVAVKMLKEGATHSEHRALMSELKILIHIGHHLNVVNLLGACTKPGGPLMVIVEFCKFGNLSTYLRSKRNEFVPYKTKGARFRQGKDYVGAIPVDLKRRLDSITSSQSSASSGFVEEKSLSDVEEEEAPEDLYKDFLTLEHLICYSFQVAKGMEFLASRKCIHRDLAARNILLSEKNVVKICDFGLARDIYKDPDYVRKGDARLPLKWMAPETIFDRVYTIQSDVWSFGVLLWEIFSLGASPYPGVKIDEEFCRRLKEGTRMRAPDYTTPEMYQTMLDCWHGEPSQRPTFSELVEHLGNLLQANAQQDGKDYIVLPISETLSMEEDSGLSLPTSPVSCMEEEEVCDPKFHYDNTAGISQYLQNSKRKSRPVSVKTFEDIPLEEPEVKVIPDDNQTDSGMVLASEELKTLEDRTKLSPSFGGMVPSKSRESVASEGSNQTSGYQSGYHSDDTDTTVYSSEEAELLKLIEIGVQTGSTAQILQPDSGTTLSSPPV
Format: biochemical
Method: An ELISA (Enzyme-Linked Immunosorbent Sandwich Assay) procedure may be used to detect and measure the level of protein tyrosine kinase activity. […] According to the principle of ELISA, a monoclonal antibody can react with phosphorylated substrate specially, so biotin-labeled substrate is binded to streptavidin-coated ELISA plate, and then binded to a HRP-labeled goat anti-mouse antibody. Finally TMB is added for a color reaction and the value of A450-A630 is read by ELISA plate reader. The OD value can reflect the inhibitory activity of the VEGFR-2, PDGFR-β, c-Kit tyrosine kinases etc. treated with the test compounds at the different concentrations. So, the assay may be used to measure the inhibition ratio of the compounds for the tyrosine kinase activity. Similar assays can be designed along the same lines for any PK using techniques well known in the art.
According to the principle of ELISA, a monoclonal antibody can react with phosphorylated substrate specially, so biotin-labeled substrate is binded to streptavidin-coated ELISA plate, and then binded to a HRP-labeled goat anti-mouse antibody. Finally TMB is added for a color reaction and the value of A450-A630 is read by ELISA plate reader. The OD value can reflect the inhibitory activity of the VEGFR-2, PDGFR-β c-Kit tyrosine kinases treated with the test compounds at the different concentrations. So, the assay may be used to measure the inhibition ratio of the compounds for the tyrosine kinase activity. Similar assays can be designed along the same lines for any PK using techniques well known in the art.
VEGF Receptor 2, PDGF Receptor-beta and c-kit kinase assay kit (include kinase, 1.25M DTT, substrate peptide, 10 mM ATP, P-Tyr-100 Mouse antibody, 4×HTScan tyrosine kinase buffer), Cell Signaling Technology CO.; HRP labeled goat anti mouse IgG, Protein Tech CO.; TMB, Pierce CO.; Streptavidin Microtitration Plate, Greiner Bio-one CO.; Infinite M200 Reader, Tecan CO.
1.2.1 Immediately transfer enzyme from −80° C. to ice. Allow enzyme to thaw on ice then at 4° C. and centrifugate transiently to the bottom of centrifuge tube, then lay back on ice quickly
1.2.2 Add 10 μl of DTT (1.25 M) to 2.5 ml of 4×HTScan tyrosine kinase buffer (240 mM HEPES pH 7.5, 20 mM MgCl2, 20 mM MnCl2, 12 μM Na3VO4). Transfer 0.6 ml of DTT/Kinase buffer to each enzyme tube to make 4× reaction Cocktail. Incubate 12.5 μl of the 4× reaction cocktail with 12.5 μl/well prediluted compound of interest for 5 minutes at room temperature, and set blank control, free-enzyme control, negative control and positive control. 1.2.3 Add 10 μl 10 mM ATP to 1.25 ml 6 μM substrate peptide. Dilute the mixture with dH20 to 2.5 ml to make 2×ATP/substrate cocktail. Add 25 μl of 2×ATP/substrate cocktail to 25 μl/well preincubated reaction cocktail/compound. Incubate reaction plate at room temperature for 30 minutes. 1.2.4 Add 50 μl/well stop Buffer (50 mM EDTA, pH 8) to stop the reaction. Transfer 25 μl of each reaction and 75 μl dH2O/well to a 96-well streptavidin coated plate and incubate at room temperature for 60 minutes. Wash three times with 200 μl/well PBS/T(1×PBS, 0.05% Tween-20). 1.2.5 Dilute primary antibody, Phospho-Tyrosine mAb (P-Tyr-100), 1:500 in PBS/T with 1% BSA. Add 100 μl/well primary antibody. Incubate at room temperature for 60 minutes. Wash three times with 200 μl/well PBS/T(1×PBS, 0.05% Tween-20). 1.2.6 Prepare appropriate dilution of HRP labeled secondary antibody, 1:500 in PBS/T with 1% BSA. Add 100 μl/well secondary antibody solution. Incubate at room temperature for 30 minutes. Wash five times with 200 μl/well PBS/T 1.2.7 Add 100 μl/well TMB substrate and incubate at room temperature for 1-10 minutes. Add 50 μl 2M H2SO4 to stop the color reaction. Read the absorbance of A450-A630 with the Infinite M200 microtiter plate reader. 1.2.8 Calculate the inhibition ratio with the following formula: […]
With CCN(CC)CCNC(=O)c1c(C)[nH]c2c1CCC/C2=C1/C(=O)Nc2ccc(C)cc21 [I-4, N-(2-(diethylamino)ethyl)-2-methyl-7-[1,2-dihydro-5-methyl-2-oxo-3H-indol-(Z)-3-ylidene]-4,5,6,7-tetrahydro-1H-indole-3-carboxamide] the inhibition at 0.1 µM was 76%. Work on Cc1[nH]c2c(c1C(=O)NCCN(C)C)CCC/C2=C1/C(=O)Nc2ccc(F)cc21 [I-6, N-(2-(dimethylamino)ethyl)-2-methyl-7-[1,2-dihydro-5-fluoro-2-oxo-3H-indol-(Z)-3-ylidene]-4,5,6,7-tetrahydro-1H-indole-3-carboxamide] yielded an inhibition at 0.1 µM of 79%. Compound Cc1[nH]c2c(c1C(=O)NCCO)CCC/C2=C1/C(=O)Nc2ccccc21 [I-8, N-(2-hydroxyethyl)-2-methyl-7-[1,2-dihydro-2-oxo-3H-indol-(Z)-3-ylidene]-4,5,6,7-tetrahydro-1H-indole-3-carboxamide] has an inhibition at 0.1 µM of 76%. CCN(CC)CCNC(=O)c1c(C)[nH]c2c1CCC/C2=C1/C(=O)Nc2ccc(Cl)cc21 [I-3, N-(2-(diethylamino)ethyl)-2-methyl-7-[1,2-dihydro-5-chloro-2-oxo-3H-indol-(Z)-3-ylidene]-4,5,6,7-tetrahydro-1H-indole-3-carboxamide] was tested, and the inhibition at 0.1 µM was 54%. CCN(CC)CCNC(=O)c1c(C)[nH]c2c1CCC/C2=C1/C(=O)Nc2ccc(F)cc21 [I-2, N-(2-(diethylamino)ethyl)-2-methyl-7-[1,2-dihydro-5-fluoro-2-oxo-3H-indol-(Z)-3-ylidene]-4,5,6,7-tetrahydro-1H-indole-3-carboxamide] showed an inhibition at 0.1 µM of 75%. For CCN(CC)CC(O)CNC(=O)c1c(C)[nH]c2c1CCC/C2=C1/C(=O)Nc2ccccc21 (stereo not drawn) [I-63, N-(3-(diethylamino)-2-hydroxypropyl)-2-methyl-7-[1,2-dihydro-2-oxo-3H-indol-(Z)-3-ylidene]-4,5,6,7-tetrahydro-1H-indole-3-carboxamide], the inhibition at 0.1 µM was 80%. Compound Cc1[nH]c2c(c1C(=O)NCC(O)CN1CCCC1)CCC/C2=C1/C(=O)Nc2ccccc21 (stereo not drawn) [I-70, N-(2-hydroxy-3-(pyrrolidin-1-yl)propyl)-2-methyl-7-[1,2-dihydro-2-oxo-3H-indol-(Z)-3-ylidene]-4,5,6,7-tetrahydro-1H-indole-3-carboxamide] has an inhibition at 0.1 µM of 84%. With CCN(CC)CCNC(=O)c1c(C)[nH]c2c1CCC/C2=C1/C(=O)Nc2ccccc21 [I-5, N-(2-(diethylamino)ethyl)-2-methyl-7-[1,2-dihydro-2-oxo-3H-indol-(Z)-3-ylidene]-4,5,6,7-tetrahydro-1H-indole-3-carboxamide] the inhibition at 0.1 µM was 74%. With Cc1[nH]c2c(c1C(=O)NCCCN(C)C)CCC/C2=C1/C(=O)Nc2ccc(Cl)cc21 [I-7, N-(3-(dimethylamino)propyl)-2-methyl-7-[1,2-dihydro-5-chloro-2-oxo-3H-indol-(Z)-3-ylidene]-4,5,6,7-tetrahydro-1H-indole-3-carboxamide] the inhibition at 0.1 µM was 82%.

Same assay, conditions: read-out: IC50 of the VEGF Receptor Kinase
Cc1[nH]c2c(c1C(=O)N1CCN(C)CC1)CCC/C2=C1/C(=O)Nc2ccc(F)cc21 [I-14, 2-methyl-3-(4-methylpiperazine-1-carbonyl)-7-[1,2-dihydro-5-fluoro-2-oxo-3H-indol-(Z)-3-ylidene]-4,5,6,7-tetrahydro-1H-indole] gave an IC50 of 79 nM. With Cc1[nH]c2c(c1C(=O)NCC(O)CN1CCCC1)CCC/C2=C1/C(=O)Nc2ccc(F)cc21 (stereo not drawn) [I-71, N-(2-hydroxy-3-(pyrrolidin-1-yl)propyl)-2-methyl-7-[1,2-dihydro-5-fluoro-2-oxo-3H-indol-(Z)-3-ylidene]-4,5,6,7-tetrahydro-1H-indole-3-carboxamide] the IC50 was 34 nM. Compound CCN(CC)CCNC(=O)c1c(C)[nH]c2c1CCC/C2=C1/C(=O)Nc2ccc(C)cc21 [I-4, N-(2-(diethylamino)ethyl)-2-methyl-7-[1,2-dihydro-5-methyl-2-oxo-3H-indol-(Z)-3-ylidene]-4,5,6,7-tetrahydro-1H-indole-3-carboxamide] has an IC50 of 5.6 nM. Work on Cc1[nH]c2c(c1C(=O)NCC(O)CN1CCN(C)CC1)CCC/C2=C1/C(=O)Nc2ccc(F)cc21 (stereo not drawn) [I-77, N-[2-hydroxy-3-(4-methylpiperazin-1-yl)propyl]-2-methyl-7-[1,2-dihydro-5-fluoro-2-oxo-3H-indol-(Z)-3-ylidene]-4,5,6,7-tetrahydro-1H-indole-3-carboxamide] yielded an IC50 of 25 nM. Cc1[nH]c2c(c1C(=O)NCC(O)CN1CCCCC1)CCC/C2=C1/C(=O)Nc2ccc(F)cc21 (stereo not drawn) [I-74, N-(2-hydroxy-3-(piperidin-1-yl)propyl)-2-methyl-7-[1,2-dihydro-5-fluoro-2-oxo-3H-indol-(Z)-3-ylidene]-4,5,6,7-tetrahydro-1H-indole-3-carboxamide] gave an IC50 of 13 nM. In the case of CCN(CC)CCNC(=O)c1c(C)[nH]c2c1CCC/C2=C1/C(=O)Nc2ccc(Cl)cc21 [I-3, N-(2-(diethylamino)ethyl)-2-methyl-7-[1,2-dihydro-5-chloro-2-oxo-3H-indol-(Z)-3-ylidene]-4,5,6,7-tetrahydro-1H-indole-3-carboxamide], the IC50 is reported as 5.3 nM. Compound Cc1[nH]c2c(c1C(=O)NCCO)CCC/C2=C1/C(=O)Nc2ccc(F)cc21 [I-9, N-(2-hydroxyethyl)-2-methyl-7-[1,2-dihydro-5-fluoro-2-oxo-3H-indol-(Z)-3-ylidene]-4,5,6,7-tetrahydro-1H-indole-3-carboxamide] has an IC50 of 30 nM. Cc1[nH]c2c(c1C(=O)NCC(O)CN1CCOCC1)CCC/C2=C1/C(=O)Nc2ccc(F)cc21 (stereo not drawn) [I-68, N-(2-hydroxy-3-morpholinopropyl)-2-methyl-7-[1,2-dihydro-5-fluoro-2-oxo-3H-indol-(Z)-3-ylidene]-4,5,6,7-tetrahydro-1H-indole-3-carboxamide] gave an IC50 of 43 nM. CCN(CC)CCNC(=O)c1c(C)[nH]c2c1CCC/C2=C1/C(=O)Nc2ccccc21 [I-5, N-(2-(diethylamino)ethyl)-2-methyl-7-[1,2-dihydro-2-oxo-3H-indol-(Z)-3-ylidene]-4,5,6,7-tetrahydro-1H-indole-3-carboxamide] was tested, and the IC50 was 9 nM.

— patent publication US8084621B2, “3-Pyrrolo[b]cyclohexylene-2-dihydroindolinone derivatives and uses thereof” (Jiangsu Simcere Pharmaceutical R&D Co. Ltd., priority 2006, dated 2011)
